Measured values taken from patent US6525040B1, “Cyclic organoselenium compounds, their preparation and their uses” (Oxis Isle of Man, Limited, priority 1996, dated 2003).

Experiments:
[1] = tested on: TNF-α-induced P-selectin expression by endothelial cells (HUVEC); assay: Inhibition of TNF-α-induced P-selectin expression by endothelial cells (cell ELISA); assay type: cell-based; details: compound 10 μM; TNF-α 1 ng/ml; 3 h 30 min incubation; human endothelial cells
Procedure: (§1) Human endothelial cells are grown under the same conditions as those described in Example 6.
(§2) When the cells are close to confluence, they are incubated for one hour in the presence or in the absence of one of the following compounds: BXT-51097 or BXT-51103. Each one of these compounds is incorporated at 10 μM in the culture medium containing 2% foetal calf serum, everything else being equal. After the removal of the culture medium, the cells are incubated in the presence or in the absence (control) of TNF-α, at 1 ng/ml, in the same culture medium as before. In the case of cells pre-treated with a compound, the medium further contains the same compound at 10 μM. After three hours and thirty minutes of incubation, the cells are washed with PBS buffer and they are fixed with 2% formaldehyde in the same buffer. The P- and E-selectin expressions on the cells are then measured by an ELISA determination by successively incubating the cells in the presence of a mouse monoclonal antibody, anti-P-selectin and anti-E-selectin respectively, and a rabbit anti-mouse anti-antibody labelled with alkaline phosphatase. The quantification is carried out upon the addition of para-nitrophenyl phosphate whose hydrolysis is followed at 405 nm.

[2] = tested on: TNF-α-induced interleukin 8 release by endothelial cells (HUVEC); assay: Inhibition of the TNF-α-induced release of interleukin 8 by endothelial cells (ELISA); assay type: cell-based; details: compound 10 μM, TNF-α 1 ng/ml, 3 h 30 min incubation, human endothelial cells, read-out: Inhibition of TNF-α-induced IL-8 production in the culture medium
Procedure: Human endothelial cells are grown at 37° C. in multi-well plates under a water-saturated atmosphere constituted of a gaseous mixture of 95% air and 5% CO2. Their culture medium is constituted by a medium M 199 pH=7.4 containing 20% foetal calf serum, 2 mM L-glutamine, 100 U/ml penicillin, 100 μg/ml streptomycin and 1% by volume of a medium supplement containing heparin and a growth factor for these cells.
When the cells are close to confluence, they are incubated for one hour in the presence or in the absence of one of the following compounds: BXT-51097 or BXT-51103. Each one of these compounds is incorporated at 10 μM in the culture medium containing 2% foetal calf serum, everything else being equal. After removal of the culture medium, the cells are incubated in the presence or in the absence (control) of TNF-α, at 1 ng/ml, in the same culture medium as before. In the case of cells pre-treated with a compound of the invention, the medium further contains the same compound at 10 μM. After three hours and thirty minutes of incubation, the interleukin 8 (IL-8) released into the culture medium is determined by ELISA.

[3] = Glutathione peroxidase activity (NADPH-coupled, GSH/glutathione disulphide reductase); assay type: biochemical; details: compound 20 μM, pH = 7.3, 37° C., [GSH] = 2 mM; for Glutathione peroxidase activity, H2O2: substrate H2O2; for Glutathione peroxidase activity, t-BuOOH: substrate t-BuOOH
Procedure: The glutathione peroxidase activity is determined by using a 50 mM HEPES buffer, pH=7.3 (at 37° C.), containing 0.2 mM DTPA, 0.144 mM NADPH, 2.2 mM reduced glutathione (GSH) and 1.1 U/ml glutathione disulphide reductase. This buffer further contains 110 U/ml catalase when hydrogen peroxide is not used as substrate.
To 1.5 ml of the buffer described above, are added 100 μl of an ethanolic stock solution of the compound tested or 100 μl of absolute ethanol (blank). Each compound is tested at a final concentration of 20 μM. The reaction medium is equilibrated for 2 minutes at 37° C. Then 50 μl of 6.6 mM tert-butyl hydroperoxide (t-BuOOH) in ultrapure water, or 3.3 mM hydrogen peroxide (H2O2) in ultrapure water are added. The glutathione peroxidase activity is determined at 37° C. by measuring the decrease of absorbance at 340 nm for 5 minutes. Said activity or initial enzymatic rate is proportional to the slope of the variation of absorbance with time.
The catalytic activity of oxygen reduction of the compounds tested corresponds to the rate of consum.p.ion of NADPH in the absence of hydroperoxide.
They are expressed in nmoles of hydroperoxide reduced per minute.

[4] = tested on: TNF-α-induced E-selectin expression by endothelial cells (HUVEC); assay: Inhibition of TNF-α-induced E-selectin expression by endothelial cells (cell ELISA); assay type: cell-based; details: compound 10 μM; TNF-α 1 ng/ml; 3 h 30 min incubation; human endothelial cells
Procedure: as §1, §2

[5] = even in the presence of an excess of glutathione GSH; cited from earlier work

Row | Compound | Inhibition of TNF-α-induced P-selectin expression [1] | inhibition at 10 µM [2] | Glutathione peroxidase activity, H2O2 [3] | Glutathione peroxidase activity, t-BuOOH [3] | Inhibition of TNF-α-induced E-selectin expression [4] | Solubility in water [5]
1 | CC1(C)CN[Se]c2ccsc21 [BXT-51103, 4,4-Dimethyl-thieno-[2,3-e]-isoselenazine] | totally inhibited | ≥ 85% | 34.9 nmoles of hydroperoxide reduced/min | 15.5 nmoles of hydroperoxide reduced/min | totally inhibited | –
2 | CC1(C)CN[Se](=O)c2sccc21 (stereo not drawn) [BXT-51100, 4,4-Dimethyl-thieno-[3,2-e]-isoselenazine-1-oxide] | – | – | 37.1 nmoles of hydroperoxide reduced/min | 10.1 nmoles of hydroperoxide reduced/min | – | –
3 | O=c1c2ccccc2[se]n1-c1ccccc1 [ebselen, 2-phenyl-1,2-benzisoselenazolin-3-one] | – | – | – | – | – | very little soluble in water
4 | CC1(C)CN[Se]c2sccc21 [BXT-51097, 4,4-Dimethyl-thieno-[3,2-e]-isoselenazine] | totally inhibited | ≥ 85% | 39.8 nmoles of hydroperoxide reduced/min | 11.4 nmoles of hydroperoxide reduced/min | totally inhibited | –
5 | CC1(C)CN[Se](=O)c2ccsc21 (stereo not drawn) [BXT-51105, 4,4-Dimethyl-thieno-[23-e]-isoselenazine-1-oxide] | – | – | 35.7 nmoles of hydroperoxide reduced/min | 13.9 nmoles of hydroperoxide reduced/min | – | –
